Measurements published in patent publication US5362873A, “Tetrahydropyridine derivatives” (Shionogi & Co., Ltd., priority 1990, dated 1994).

Assays:
[1] = system: dopamine receptors; details: prior art, in words; cited from earlier work
[2] = system: σ receptors; details: prior art, in words; cited from earlier work
[3] = target: σ receptor; experiment: σ receptor binding ([3H]3PPP); details: [3H]3PPP 5 nM, rat cortex tissue, pH 7.8, 25° C., 90 minutes
Procedure: (§1) After the decapitation of rats the objective tissues were rapidly removed and each was weighed. Each tissue was homogenized with twenty-fold amount of ice-cold 50 mM […] buffer (pH7.8) homogenized, and centrifuged at 40,000×g for 10 minutes. The supernatant was removed and pellets were then resuspended in the buffer and recentrifuged. The procedure is repeated 3 times. Then these obtained samples were freeze-dried in liquid nitrogen and preserved at -80° C. On the test day the sample was thawed at room temperature and centrifuged at 40,000×g for 10 minutes, the pellets were then suspended in an incubation buffer and used as the receptor preparation. The preparation was added to the mixture containing the labelled ligand and the test drug, and filtered through Whatman GF/C filters and washed to terminate the reaction. Radioactivity on the filters was determined by a liquid scintillation counter and Ki value was calculated.
Sigma receptor binding was initiated by the addition of the receptor preparation (cortex tissue, 0.7 mg protein/ml) to a mixture containing 5 nM of [^3 H]3PPP [3-hydroxyphenyl-N-(1-propyl)piperidine] and the test compound dissolved in 50 mM Tris-HCl buffer (pH 7.8). Incubation was carried out at 25° C. for 90 minutes. Specific sigma receptor binding was defined as the difference in amount of [^3 H]3PPP bound to the tissue in the presence or the absence of 10 μM haloperidol.

[4] = target: T1, DA2 receptor (Rattus norvegicus, UniProt P61169); experiment: DA2 receptor binding ([3H]spiroperidol); details: [3H]spiroperidol 0.2 nM, rat striatal tissue, pH 7.4, 37° C., 10 minutes
T1 construct: receptor preparation (striatal tissue, 0.3 mg protein/ml); from tissue; host or cells: rat striatal membranes
Procedure: as §1
DA2 receptor binding was initiated by the addition of the receptor preparation (striatal tissue, 0.3 mg protein/ml) to a mixture containing 0.2 nM of [^3 H]spiroperidol and the test compound dissolved in 50 mM Tris-HCl buffer containing 100 mM-NaCl and 5 mM-KCl (pH 7.4). Incubation was carried out at 37° C. for 10 minutes. Specific DA2 receptor binding was defined as the difference in amount of [^3 H]spiroperidol bound to the tissue in the presence or the absence of 10 μM haloperidol.

[5] = target: PCP receptor; experiment: PCP receptor binding ([3H]TCP); details: [3H]TCP 5 nM, rat cortex tissue, pH 7.8, 25° C., 30 minutes
Procedure: as §1
PCP receptor binding was initiated by the addition of the receptor preparation (cortex tissue, 0.2 mg protein/ml) to a mixture containing 5 nM of [^3 H]TCP and the test compound dissolved in 5 mM Tris-HCl buffer (pH 7.8). Incubation was carried out at 25° C. for 30 minutes. Specific PCP receptor binding was defined as the difference in amount of [^3 H]TCP bound to the tissue in the presence or the absence of 10 μM PCP.

[6] = target: T2, 5HT2 receptor (Rattus norvegicus, UniProt P14842); experiment: 5HT2 receptor binding ([3H]spiroperidol); details: [3H]spiroperidol 1 nM, rat cortex tissue, pH 7.4, 37° C., 15 minutes
T2 construct: receptor preparation (cortex tissue, 0.5 mg protein/ml); from tissue; host or cells: rat cortex membranes
Procedure: as §1
5HT2 receptor binding was initiated by the addition of the receptor preparation (cortex tissue, 0.5 mg protein/ml) to a mixture containing 1 nM of [^3 H]spiroperidol and the test compound dissolved in 50 mM Tris-HCl buffer (pH 7.4). Incubation was carried out at 37° C. for 15 minutes. Specific 5HT2 receptor binding was defined as the difference in amount of [^3 H]spiroperidol bound to the tissue in the presence or the absence of 1 mM serotonin.

T2 sequence (P14842 whole entry): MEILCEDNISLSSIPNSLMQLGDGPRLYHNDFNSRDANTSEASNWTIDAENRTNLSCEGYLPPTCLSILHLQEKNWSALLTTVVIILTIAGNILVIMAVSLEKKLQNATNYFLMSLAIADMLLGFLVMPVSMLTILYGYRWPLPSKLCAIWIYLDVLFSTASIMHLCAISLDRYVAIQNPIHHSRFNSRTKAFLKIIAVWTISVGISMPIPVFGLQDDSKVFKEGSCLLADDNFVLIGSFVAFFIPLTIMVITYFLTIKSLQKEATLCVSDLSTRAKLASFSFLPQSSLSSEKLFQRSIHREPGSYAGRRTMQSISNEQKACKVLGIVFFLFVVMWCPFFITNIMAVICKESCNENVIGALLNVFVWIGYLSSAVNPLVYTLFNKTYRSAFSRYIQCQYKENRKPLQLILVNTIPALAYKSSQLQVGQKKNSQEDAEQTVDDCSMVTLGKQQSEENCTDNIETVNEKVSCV
T1 sequence (P61169 whole entry): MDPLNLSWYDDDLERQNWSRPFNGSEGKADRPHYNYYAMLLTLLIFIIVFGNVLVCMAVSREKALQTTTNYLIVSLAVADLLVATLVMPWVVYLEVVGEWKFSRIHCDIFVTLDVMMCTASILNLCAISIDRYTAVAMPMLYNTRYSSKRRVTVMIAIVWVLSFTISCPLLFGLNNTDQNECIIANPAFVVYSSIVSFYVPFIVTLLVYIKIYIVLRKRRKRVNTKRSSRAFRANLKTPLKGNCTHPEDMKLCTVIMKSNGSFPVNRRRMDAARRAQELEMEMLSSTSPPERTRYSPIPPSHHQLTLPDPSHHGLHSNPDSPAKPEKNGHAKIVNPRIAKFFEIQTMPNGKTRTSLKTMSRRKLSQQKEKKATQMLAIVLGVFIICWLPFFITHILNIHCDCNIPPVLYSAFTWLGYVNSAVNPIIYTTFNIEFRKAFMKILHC

SMILES | affinity to dopamine receptors [1] | affinity to σ receptors [2] | Ki [3] | Ki [4] | Ki [5] | Ki [6]
OC(CCCN1CCN(c2ncc(F)cn2)CC1)c1ccc(F)cc1 (centres unmarked) [BMY 148021] | low affinity | high affinity | – | – | – | –
O=C1CCCN1C(=O)NCCCN1CC=C(c2ccc(C(F)(F)F)cc2)CC1 [I a-2] | – | – | 0.0041 µM | 4.7 µM | 31 µM | 0.55 µM
CCCc1ccc(C2=CCN(CCCNC(=O)N3CCCC3=O)CC2)cc1 [I a-3] | – | – | 0.0095 µM | 4 µM | 15 µM | 1.7 µM
CC(C)(C)c1ccc(C2=CCN(CCCNC(=O)N3CCCC3=O)CC2)cc1 [I a-6] | – | – | 0.0027 µM | 2.2 µM | 49 µM | 2.5 µM
CC(C)(C)c1ccc(C2=CCN(CCCC(=O)N3CCCC3=O)CC2)cc1 [I a-8] | – | – | 0.0013 µM | 1.2 µM | > 62 µM | 2.9 µM
O=C(CCCN1CC=C(c2ccc(C(F)(F)F)cc2)CC1)N1CCCC1=O [I a-9] | – | – | 0.0061 µM | 1.6 µM | 33 µM | 1.2 µM
CC(C)(C)c1ccc(C2=CCN(CCCNC(=O)N3CCCC3)CC2)cc1 [I a-11] | – | – | 0.0026 µM | 4.5 µM | 23 µM | 4.4 µM
O=C1CCCN1C(=O)NCCCCCN1CC=C(c2ccc(C(F)(F)F)cc2)CC1 [I a-13] | – | – | 0.0022 µM | 0.32 µM | 26 µM | 0.77 µM
Cc1ccc(C2=CCN(CCCN(CC(C)C)CC(C)C)CC2)cc1 [I a-24] | – | – | 0.0058 µM | 1.1 µM | 32 µM | 0.38 µM
CNCCCN1CC=C(c2ccc(C(C)(C)C)cc2)CC1 [I a-30, 1-[(3-methylamino)propyl]-4-(4-tert-butylphenyl)-1,2,5,6-tetrahydropyridine] | – | – | 0.0013 µM | 2 µM | > 63 µM | 3.7 µM
CC(C)(C)c1ccc(C2=CCN(CCCN3CCOCC3)CC2)cc1 [I a-35, 4-[3-{4-(4-tert-butylphenyl)-1,2,5,6-tetrahydropyridin-1-yl}propyl]morpholine] | – | – | 0.0018 µM | 4.6 µM | 18 µM | 3.2 µM
CC1CCN(CCCN2CC=C(c3ccc(C(C)(C)C)cc3)CC2)CC1 [I a-56] | – | – | 0.0065 µM | 4.5 µM | 44 µM | 8.9 µM
Cc1ccc(C2=CCN(CCCN3CCC(C)CC3)CC2)cc1 [I a-57] | – | – | 0.0063 µM | 2.4 µM | 44 µM | 0.14 µM
CC(C)(C)c1ccc(C2=CCN(CCCN3CCSCC3)CC2)cc1 [I a-94] | – | – | 0.0013 µM | 1.4 µM | 27 µM | 1.9 µM
Cc1ccc(C2=CCN(CCCN3CCOCC3)CC2)cc1 [I a-101] | – | – | 0.00031 µM | 1.8 µM | > 63 µM | 7.7 µM
Clc1ccc(C2=CCN(CCCN3CCOCC3)CC2)cc1 [I a-102] | – | – | 0.00071 µM | 3.2 µM | > 71 µM | 5.7 µM
FC(F)(F)c1ccc(C2=CCN(CCCOc3ccc(Cl)c(Cl)c3)CC2)cc1 [I a-111, 1-{3-(3,4-Dichlorophenoxy)propyl}-4-(4-trifluoromethylphenyl)-1,2,5,6-tetrahydropyridine] | – | – | 0.0029 µM | 0.63 µM | > 63 µM | 0.39 µM
C[C@@H]1CN(CCCn2c3ccccc3c3ccccc32)C[C@H](C)N1 [rimcazole] | low affinity | high affinity | – | – | – | –
